Results from patent publication US20240318141A1, “MATURATION AGENT” (Orizuru Therapeutics, Inc., priority 2021, published 2024).
Where “and” joins values, the source holds several entries; their conditions need not be identical. Identical values can stand only once.

How the values were obtained:
[1] = test system: non-endocrine cells in insulin-producing cell population (QHJI-I14s04 iPS cell line); assay: Cisplatin or docetaxel treatment in step 6), then extended culture in basal medium containing EGF (Example 2); assay type: cell-based, human
Source text: The differentiation of a QHJI-I14s04 iPS cell line into an insulin-producing cell population was induced by the three-dimensional culture method using a bioreactor according to steps 1) to 6) described above and the previous report (Nature Biotechnology 2014; 32: 1121-1133). Specifically, the iPS cells were subjected to the first culture in a medium (DMEM/1% B-27 (INS+)/Penicillin Streptomycin/dimethyl sulfoxide) containing differentiation-inducing factors (GSK3β inhibitor, ROCK inhibitor and low dose of activin A) under conditions causing action of insulin, and subsequently subjected to the second culture in a medium (DMEM/1% B-27 (INS−)/Penicillin Streptomycin/dimethyl sulfoxide) containing a differentiation-inducing factor (low dose of activin A) under conditions causing no action of insulin to obtain a definitive endoderm cell population. Further, a pancreatic endocrine progenitor cell population obtained by the induction of differentiation from the definitive endoderm cell population was cultured in a medium (Improved MEM/1% B-27 (INS+)/Penicillin Streptomycin) containing differentiation-inducing factors (ALK5 inhibitor II, T3, LDN, Y-secretase inhibitor RO, and ascorbic acid) and FGF receptor 1 inhibitor (PD-166866) to obtain an insulin-producing cell population.
An insulin-producing cell population obtained without the addition of cisplatin and docetaxel was used as a control cell population and subjected to extended culture in the same manner as above.
Marker protein expression (PDX1, CHGA, and Ki67) in each insulin-producing cell population before the start of and after the completion of extended culture was measured by flow cytometry. Samples after the completion of extended culture were collected by sampling three times from the same culture container. The number of cells was measured in an automatic cell counter at the time of sample preparation for flow cytometry, and the total number of cells per mL of the bioreactor was calculated. The number of CHGA-positive cells, the number of PDX1-positive and CHGA-negative cells, and the number of PDX1-negative and CHGA-negative cells were calculated from the obtained total number of cells and the flow cytometry results.

[2] = test system: non-endocrine cells in insulin-producing cell population (Ff-I14s04 iPS cell line); assay: Extended culture of insulin-producing cell population in basal medium containing EGF (Example 1); assay type: cell-based, human
Source text: The differentiation of a Ff-I14s04 iPS cell line into an insulin-producing cell population was induced by the three-dimensional culture method using a bioreactor and a multiwell plate according to steps 1) to 6) described above and the previous report (Nature Biotechnology 2014; 32: 1121-1133). Specifically, the iPS cells were subjected to the first culture in a medium (DMEM/1% B-27 (INS+)/Penicillin Streptomycin/dimethyl sulfoxide) containing differentiation-inducing factors (GSK3β inhibitor, ROCK inhibitor and low dose of activin A) under conditions causing action of insulin, and subsequently subjected to the second culture in a medium (DMEM/1% B-27 (INS−)/Penicillin Streptomycin/dimethyl sulfoxide) containing a differentiation-inducing factor (low dose of activin A) under conditions causing no action of insulin to obtain a definitive endoderm cell population. Further, a pancreatic endocrine progenitor cell population obtained by the induction of differentiation from the definitive endoderm cell population was cultured in a medium (Improved MEM/1% B-27 (INS+)/Penicillin Streptomycin) containing differentiation-inducing factors (ALK5 inhibitor II, T3, LDN, γ-secretase inhibitor RO, and ascorbic acid) and FGF receptor 1 inhibitor (PD-166866) to obtain an insulin-producing cell population. The exchange from the bioreactor to the multiwell plate was carried out in step 6).
The insulin-producing cell population was subjected to extended culture for 4 weeks in a basal medium (MCDB131/20 mM Glucose/NaHCO3/FAF-BSA/ITS-X/Glutamax/Penicillin Streptomycin). EGF, when added for the purpose of promoting the proliferation of unintended cells, was added at 50 ng/ml (final concentration) to the basal medium for culture.
Marker protein expression (PDX1 and CHGA) in the insulin-producing cell population before the start of and after the completion of extended culture was measured by flow cytometry. Respective samples were collected by sampling from separate culture containers. The number of cells was measured in an automatic cell counter at the time of sample preparation for flow cytometry, and the total number of cells per well of the multiwell plate was calculated. The number of CHGA-positive cells, the number of PDX1-positive and CHGA-negative cells, and the number of PDX1-negative and CHGA-negative cells were calculated from the obtained total number of cells and the flow cytometry results.

[3] = test system: insulin-producing cell population (QHJI-114s04 iPS cell line); settings: induction of differentiation using medium supplemented with FGF receptor 1 inhibitor; see WO2019/208505; cited from earlier work
[4] = after extended culture 4 weeks, EGF present, average of three samplings
[5] = after extended culture 4 weeks, EGF present, single samplings
[6] = after extended culture involving EGF, with respect to control cell population
[7] = s6d11 (before extended culture); 3 μM cisplatin or 1 μM docetaxel for 7 days from day 4 of step 6)
[8] = after extended culture 4 weeks, EGF present (50 ng/ml)
[9] = extended culture in basal medium containing EGF

In the case of `N.N.[Cl][Pt][Cl]` [Cisplatin, cisplatin], the “The number of cells CHGA+, average” value [1, 4] is reported as 23 ×10^4 cells/mL, the “The number of cells PDX+/CHGA−, average” value [1, 4] is reported as 97 ×10^4 cells/mL and the “The number of cells PDX−/CHGA−, average” value [1, 4] is reported as 5.4 ×10^4 cells/mL. For the same compound, the “Total number of cells, average” value [1, 4] was 125 ×10^4 cells/mL, the “The number of cells CHGA+” value [1, 5] was 24 ×10^4 cells/mL and 21 ×10^4 cells/mL and the “The number of cells PDX+/CHGA−” value [1, 5] was 97 ×10^4 cells/mL and 84 ×10^4 cells/mL and 110 ×10^4 cells/mL. The “The number of cells PDX−/CHGA−” value [1, 5] was 4.5 ×10^4 cells/mL and 4.4 ×10^4 cells/mL and 7.2 ×10^4 cells/mL, the “Total number of cells” value [1, 5] was 125 ×10^4 cells/mL and 109 ×10^4 cells/mL and 141 ×10^4 cells/mL and the “proportion of PDX1-negative and CHGA-negative (PDX1−/CHGA−) cells” value [1, 6] was “drastically decreased”. For the same compound, the “proportion of PDX1-positive and CHGA-negative (PDX1+/CHGA−) cells” value [1, 6] was “no large change”, the “total number of cells after extended culture (in words)” value ([1]; extended culture involving EGF) was “increased” and the “The number of cells CHGA+” value [1, 7] was 88 ×10^4 cells/mL. For the same compound, the “The number of cells PDX+/CHGA−” value [1, 7] was 2.7 ×10^4 cells/mL, the “The number of cells PDX−/CHGA−” value [1, 7] was 0.3 ×10^4 cells/mL and the “Total number of cells” value [1, 7] was 91 ×10^4 cells/mL. For the same compound, the “number of CHGA-positive endocrine cells after extended culture (in words)” value ([1]; with respect to control cell population) was “not changed”.
In the case of “EGF: epidermal growth factor added at 50 ng/ml to basal medium to promote proliferation of unintended cells”, the “The number of cells CHGA+” value [2, 8] is reported as 128 ×10^4 cells/well and 123 ×10^4 cells/well, the “The number of cells PDX+/CHGA−” value [2, 8] is reported as 27 ×10^4 cells/well and 32 ×10^4 cells/well and the “Total number of cells” value [2, 8] is reported as 198 ×10^4 cells/well and 222 ×10^4 cells/well and 281 ×10^4 cells/well. For the same compound, the “number of CHGA-positive endocrine cells (in words)” value [2, 9] was “no large change”, the “proportions of PDX1+/CHGA− and PDX1−/CHGA− non-endocrine cells” value [2, 9] was “markedly increased” and the “total number of cells after extended culture (in words)” value [2, 9] was “increased”.
For `COc1cc(OC)cc(-c2cc3cnc(N)nc3nc2NC(=O)NC(C)(C)C)c1` [PD-166866, 1-[2-amino-6-(3,5-dimethoxyphenyl)-pyrido(2,3-d)pyrimidin-7-yl]-3-tert-butylurea], the “abundance of CHGA-negative and Ki67-positive (CHGA−/Ki67+) cells (in words)” value [3] is given as “drastically reduced”.
